Source: PubChem BioAssay AID330 (DTP/NCI, 2004)
Several values for one entry are separate records, joined by “and”; a condition that tells them apart may be missing. Equal entries are not always repeated. Inconclusive results and toxic doses are left out. The calls were made as follows: active = survival T/C of 150% or more; inactive = T/C below 125% in these data. Square brackets hold non-standard residues; d marks the D form. Peptide text beside a SMILES is read from it. * marks the point of attachment. ξ: configuration not given here. ξF = NC(Cc1ccccc1)C(=O)O; Cbz = O=C(OCc1ccccc1)*; Sar = CNCC(=O)O

System: P388 leukemia ip, CD2F1 mice, survival T/C
Experiment: NCI In Vivo Anticancer Drug Screen. Data for tumor model P388 Leukemia (intraperitoneal) in CD2F1 (CDF1) mice
Conditions: endpoint: median survival time, higher = longer survival
How it was run: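 Mice carrying the transplanted tumor received test compound or vehicle. Survival was recorded in each group, and the value is the treated-group measurement divided by that of the vehicle-treated control group.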

[1] = dose: 50.0 mg/kg/injection, schedule: Q01DX005 (ip), vehicle: saline with Tween-80
[2] = dose: 100.0 mg/kg/injection, schedule: Q01DX005 (ip), vehicle: saline with Tween-80
[3] = dose: 200.0 mg/kg/injection, schedule: Q01DX005 (ip), vehicle: saline with Tween-80
[4] = dose: 50.0 mg/kg/injection, schedule: Q01DX005 (ip), vehicle: Klucel (hydroxypropylcellulose) (HPC)
[5] = dose: 100.0 mg/kg/injection, schedule: Q01DX005 (ip), vehicle: Klucel (hydroxypropylcellulose) (HPC)
[6] = dose: 200.0 mg/kg/injection, schedule: Q01DX005 (ip), vehicle: Klucel (hydroxypropylcellulose) (HPC)
[7] = dose: 60.0 mg/kg/injection, schedule: Q01DX005 (ip), vehicle: Klucel (hydroxypropylcellulose) (HPC)
[8] = dose: 120.0 mg/kg/injection, schedule: Q01DX005 (ip), vehicle: Klucel (hydroxypropylcellulose) (HPC)
[9] = dose: 240.0 mg/kg/injection, schedule: Q01DX005 (ip), vehicle: Klucel (hydroxypropylcellulose) (HPC)
[10] = dose: 50.0 mg/kg/injection, schedule: Q01DX009 (ip), vehicle: saline
[11] = dose: 100.0 mg/kg/injection, schedule: Q01DX009 (ip), vehicle: saline
[12] = dose: 200.0 mg/kg/injection, schedule: Q01DX009 (ip), vehicle: saline
[13] = dose: 50.0 mg/kg/injection, schedule: Q01DX009 (ip), vehicle: Klucel (hydroxypropylcellulose) (HPC)
[14] = dose: 100.0 mg/kg/injection, schedule: Q01DX009 (ip), vehicle: Klucel (hydroxypropylcellulose) (HPC)
[15] = dose: 200.0 mg/kg/injection, schedule: Q01DX009 (ip), vehicle: Klucel (hydroxypropylcellulose) (HPC)
[16] = dose: 50.0 mg/kg/injection, schedule: Q01DX009 (ip), vehicle: saline with Tween-80
[17] = dose: 100.0 mg/kg/injection, schedule: Q01DX009 (ip), vehicle: saline with Tween-80
[18] = dose: 200.0 mg/kg/injection, schedule: Q01DX009 (ip), vehicle: saline with Tween-80
[19] = dose: 12.5 mg/kg/injection, schedule: Q01DX005 (ip), vehicle: saline with Tween-80
[20] = dose: 25.0 mg/kg/injection, schedule: Q01DX005 (ip), vehicle: saline with Tween-80

Measured: T/C

C=C1C(=O)OC2/C=C(\C)CC/C=C(/C=O)C(O)C(OC(=O)C(C)C)C12 (stereo unspecified)
inactive: dose: 5.0 mg/kg/injection, schedule: Q01DX009 (ip), vehicle: other 112 % of control | dose: 20.0 mg/kg/injection, schedule: Q01DX009 (ip), vehicle: other 94 % of control

S=c1[nH]nc(-c2n[nH]c3ccccc23)o1
inactive: [1] 100 % of control | [2] 100 % of control | [3] 97 % of control

CCCNC(=O)OCCN(CCOC(=O)NCCC)CCc1cccc(OC)c1OC
inactive: dose: 60.0 mg/kg/injection, schedule: Q01DX005 (ip), vehicle: saline 101 % of control | dose: 120.0 mg/kg/injection, schedule: Q01DX005 (ip), vehicle: saline 105 % of control | dose: 240.0 mg/kg/injection, schedule: Q01DX005 (ip), vehicle: saline 100 % of control

CC(C)CC(NC(=O)c1cccnc1)C(=O)O (stereo unspecified)
inactive: [4] 104 % of control | [5] 99 % of control | [6] 93 % of control

Nc1nc(Cl)nc(Nc2ccc(-c3cc4ccc(-c5ncc[nH]5)cc4[nH]3)cc2)n1
inactive: [7] 88 % of control | [8] 88 % of control | [9] 87 % of control

CCN(CC)CCOC(=O)c1ccc(NC(=O)COc2ccc3ccccc3c2)cc1
inactive: dose: 25.0 mg/kg/injection, schedule: Q01DX009 (ip), vehicle: other 88 % of control and 97 % of control | dose: 50.0 mg/kg/injection, schedule: Q01DX009 (ip), vehicle: other 88 % of control and 102 % of control | dose: 100.0 mg/kg/injection, schedule: Q01DX009 (ip), vehicle: other 86 % of control and 105 % of control | dose: 200.0 mg/kg/injection, schedule: Q01DX009 (ip), vehicle: other 102 % of control and 97 % of control | dose: 400.0 mg/kg/injection, schedule: Q01DX009 (ip), vehicle: other 100 % of control and 109 % of control

S=c1c2ccccc2c(=S)n(-c2ccccc2)n1-c1ccccc1
inactive: [7] 91 % of control | [8] 94 % of control | [9] 92 % of control

CC(C)OS(=O)(=O)c1ccc([N+](=O)[O-])cc1
inactive: [10] 94 % of control | [11] 100 % of control | [12] 105 % of control

Cc1ccc2sc(=S)sc2c1
inactive: [13] 89 % of control | [14] 99 % of control | [15] 96 % of control

CC1=CC2C(c3ccccc3)Nc3ccccc3N2C1=O (stereo unspecified)
inactive: [10] 94 % of control | [11] 100 % of control | [12] 94 % of control

COc1ccc(O)c(C(c2cc(OC)ccc2O)c2cc(OC)ccc2O)c1
inactive: [16] 115 % of control | [17] 115 % of control | [18] 115 % of control

CC(c1ccccc1)c1cc(C(C)(C)C)cc(C(C)(C)C)c1O (stereo unspecified)
inactive: dose: 50.0 mg/kg/injection, schedule: Q01DX005 (ip), vehicle: distilled water + alcohol 96 % of control | dose: 100.0 mg/kg/injection, schedule: Q01DX005 (ip), vehicle: distilled water + alcohol 100 % of control | dose: 200.0 mg/kg/injection, schedule: Q01DX005 (ip), vehicle: distilled water + alcohol 99 % of control

Cc1ccc(S(=O)(=O)CCCCS(=O)(=O)c2ccc(C)cc2)cc1
inactive: dose: 60.0 mg/kg/injection, schedule: Q01DX005 (ip), vehicle: saline with Tween-80 107 % of control | dose: 120.0 mg/kg/injection, schedule: Q01DX005 (ip), vehicle: saline with Tween-80 104 % of control | dose: 240.0 mg/kg/injection, schedule: Q01DX005 (ip), vehicle: saline with Tween-80 97 % of control

CN(CC(=O)NC(Cc1ccccc1)C(=O)O)C(=O)OCc1ccccc1 (stereo unspecified) (Cbz-[Sar]-[ξF]-OH)
inactive: [1] 105 % of control | [2] 102 % of control | [3] 100 % of control

COc1cc([C@@H]2c3cc4c(cc3[C@H](OC(=O)CCC(=O)O)[C@H]3COC(=O)[C@H]23)OCO4)cc(OC)c1OC
inactive: dose: 6.25 mg/kg/injection, schedule: Q01DX005 (ip), vehicle: saline with Tween-80 106 % of control | [19] 122 % of control | [20] 113 % of control

N#CC(=O)c1ccccc1
inactive: dose: 3.12 mg/kg/injection, schedule: Q04DX003 (ip), vehicle: saline with Tween-80 101 % of control | dose: 6.25 mg/kg/injection, schedule: Q04DX003 (ip), vehicle: saline with Tween-80 100 % of control | dose: 12.5 mg/kg/injection, schedule: Q04DX003 (ip), vehicle: saline with Tween-80 103 % of control and 105 % of control | dose: 400.0 mg/kg/injection, schedule: Q04DX003 (ip), vehicle: saline with Tween-80 101 % of control

Cc1cc(C)[nH]c(=O)c1
inactive: [17] 100 % of control | [18] 100 % of control | dose: 400.0 mg/kg/injection, schedule: Q01DX009 (ip), vehicle: saline with Tween-80 109 % of control

CC1CC(C)C(C)C(CNCC2CC(C)CC(C)C2C)C1 (stereo unspecified)
inactive: [19] 99 % of control | [20] 99 % of control | [1] 102 % of control and 97 % of control | [2] 102 % of control

CC(C)(C)c1ccc(O)c(C(c2cc(C(C)(C)C)ccc2O)c2cc(C(C)(C)C)ccc2O)c1
inactive: dose: 100.0 mg/kg/injection, schedule: Q01DX001 (ip), vehicle: saline with Tween-80 97 % of control | dose: 200.0 mg/kg/injection, schedule: Q01DX001 (ip), vehicle: saline with Tween-80 98 % of control | dose: 400.0 mg/kg/injection, schedule: Q01DX001 (ip), vehicle: saline with Tween-80 98 % of control

CC(=O)OC1CC2CCC1(C)C2(C)C (stereo unspecified)
inactive: [16] 109 % of control | dose: 50.0 mg/kg/injection, schedule: Q04DX003 (ip), vehicle: saline with Tween-80 105 % of control | [17] 104 % of control | dose: 100.0 mg/kg/injection, schedule: Q04DX003 (ip), vehicle: saline with Tween-80 100 % of control | dose: 200.0 mg/kg/injection, schedule: Q04DX003 (ip), vehicle: saline with Tween-80 100 % of control

CC(C)CC1CC(=O)C(=O)C(CC(C)C)C1 (stereo unspecified)
inactive: [4] 95 % of control | [5] 97 % of control | [6] 110 % of control

COc1ccc2cc1CCNC(=O)C1CCCN1C(=O)C1NCCC1O2 (stereo unspecified)
inactive: dose: 20.0 mg/kg/injection, schedule: Q01DX005 (ip), vehicle: Klucel (hydroxypropylcellulose) (HPC) 92 % of control | dose: 40.0 mg/kg/injection, schedule: Q01DX005 (ip), vehicle: Klucel (hydroxypropylcellulose) (HPC) 104 % of control | dose: 80.0 mg/kg/injection, schedule: Q01DX005 (ip), vehicle: Klucel (hydroxypropylcellulose) (HPC) 107 % of control

O=C(O)c1ccccc1-c1ccccc1[N+](=O)[O-]
inactive: [10] 88 % of control | [11] 97 % of control | [12] 97 % of control

O=C1c2ccccc2C(=O)N1CBr
inactive: dose: 12.5 mg/kg/injection, schedule: Q01DX009 (ip), vehicle: saline with Tween-80 109 % of control | dose: 25.0 mg/kg/injection, schedule: Q01DX009 (ip), vehicle: saline with Tween-80 104 % of control | [16] 100 % of control

C[Si](C)(C)S[Si](C)(C)C
inactive: [13] 106 % of control | [14] 100 % of control

CC(=O)Nc1ccc2c3c(cccc13)CC2
inactive: [13] 101 % of control | [14] 106 % of control | [15] 108 % of control

NC(COC(c1ccccc1)(c1ccccc1)c1ccccc1)C(=O)O (stereo unspecified)
inactive: dose: 100.0 mg/kg/injection, schedule: Q04DX003 (ip), vehicle: saline 118 % of control
active: dose: 200.0 mg/kg/injection, schedule: Q04DX003 (ip), vehicle: saline 154 % of control

C#CCOCCCC(=C)C
inactive: dose: 3.12 mg/kg/injection, schedule: Q01DX005 (ip), vehicle: saline 103 % of control | dose: 6.25 mg/kg/injection, schedule: Q01DX005 (ip), vehicle: saline 99 % of control | dose: 12.5 mg/kg/injection, schedule: Q01DX005 (ip), vehicle: saline 100 % of control | dose: 25.0 mg/kg/injection, schedule: Q01DX005 (ip), vehicle: saline 100 % of control

COc1cccc2sc(-n3c(C)nc4ccccc4c3=O)nc12
inactive: [7] 95 % of control | [8] 87 % of control | [9] 87 % of control
